We go through seven compounds from patent US8466143B2, “Azepine derivatives as pharmaceutical agents” (Exelixis, Inc., priority 2003, dated 2013).

Bounds are passed on as bounds.

The assay deals with T1, full length human farnesoid X receptor (Homo sapiens, UniProt Q96RI1).
T1 construct: CMX-farnesoid X receptor (full length human farnesoid X receptor); expressed in transfected cells; host or cells: CV-1 African Green Monkey Kidney cells
T1 sequence (Q96RI1 1-472 isoform Q96RI1-2): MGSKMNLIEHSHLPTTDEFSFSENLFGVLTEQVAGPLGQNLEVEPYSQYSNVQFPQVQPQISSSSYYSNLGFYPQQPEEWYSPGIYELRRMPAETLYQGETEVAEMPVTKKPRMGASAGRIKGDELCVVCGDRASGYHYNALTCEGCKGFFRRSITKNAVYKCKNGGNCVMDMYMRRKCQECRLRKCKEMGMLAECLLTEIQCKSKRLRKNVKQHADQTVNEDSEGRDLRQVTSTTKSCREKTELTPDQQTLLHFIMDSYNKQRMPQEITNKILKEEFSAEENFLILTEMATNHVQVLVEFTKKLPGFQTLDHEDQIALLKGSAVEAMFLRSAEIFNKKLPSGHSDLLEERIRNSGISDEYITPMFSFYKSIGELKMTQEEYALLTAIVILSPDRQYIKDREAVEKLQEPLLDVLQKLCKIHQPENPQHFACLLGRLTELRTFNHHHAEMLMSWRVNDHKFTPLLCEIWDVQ
T1 sequence (P19793 1-462 partner): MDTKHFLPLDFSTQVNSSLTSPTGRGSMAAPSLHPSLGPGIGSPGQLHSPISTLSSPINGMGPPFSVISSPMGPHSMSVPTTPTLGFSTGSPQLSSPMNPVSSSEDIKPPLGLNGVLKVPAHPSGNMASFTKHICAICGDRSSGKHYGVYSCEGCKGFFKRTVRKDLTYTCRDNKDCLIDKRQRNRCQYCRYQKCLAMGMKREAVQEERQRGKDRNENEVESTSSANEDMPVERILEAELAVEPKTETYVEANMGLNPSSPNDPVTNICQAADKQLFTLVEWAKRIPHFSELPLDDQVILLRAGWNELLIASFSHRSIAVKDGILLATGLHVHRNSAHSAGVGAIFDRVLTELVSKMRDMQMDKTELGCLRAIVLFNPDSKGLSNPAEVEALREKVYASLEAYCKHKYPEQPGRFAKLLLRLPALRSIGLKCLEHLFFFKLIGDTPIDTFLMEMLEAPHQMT
The assay is described as follows: farnesoid X receptor/ECREx7 co-transfection assay. The settings on record: for EC50: CV-1 cells, agonist mode. The format is cell-based. Here is the method: The basic co-transfection protocol for measuring the farnesoid X receptor activity is as follows. CV-1 African Green Monkey Kidney cells were plated 24 hours before transfection to achieve approximately 70-80 percent confluency. Cells were transfected with the following expression vectors, CMX-farnesoid X receptor (full length human farnesoid X receptor), CMX-RXRα (full length human RXR), Luc12 ((ECREx7-Tk-Luciferase) luciferase reporter gene construct. (See WO 00/76523, Venkateswaran et al., (2000) J. Biol. Chem. 275 14700-14707). A CMX-β-Galactosidase expression vector was used as a transfection control. The transfection reagent used was DOTAP (Boehringer Mannheim). Cells were incubated with the DOTAP/DNA mixture for 5 hours after which the cells were harvested and plated onto either 96 well or 384 well plates containing the appropriate concentration of test compound. The assay was allowed to continue for an additional 18-20 hours, after which the cells were lysed, with lysis buffer (1% triton X 100, 10% glycerol, 5 mM Dithiothreitol, 1 mM EGTA, 25 mM Tricine, pH 7.8) and the luciferase activity measured in the presence of Luciferase assay buffer (0.73 mM ATP, 22.3 mM Tricine, 0.11 mM EGTA, 0.55 mM Luciferin, 0.15 mM Coenzyme A, 0.5 mM HEPES, 10 mM Magnesium sulphate) on a standard luminomter plate reader (PE Biosystems, NorthStar Reader), using recommended operating instructions and conditions.
Both the farnesoid X receptor/ECREx7 co-transfection assay (Example 10) and the TR-FRET assay (Example 9) can be used to establish the EC50/IC50 values for potency and percent activity or inhibition for efficacy. Efficacy defines the activity of a compound relative to a high control (chenodeoxycholic acid, CDCA) or a low control (DMSO/vehicle). The dose response curves are generated from an 8 point curve with concentrations differing by ½ LOG units. Each point represents the average of 4 wells of data from a 384 well plate. The curve for the data is generated by using the equation: Y=Bottom+(Top-Bottom)/(1+10^((Log EC50−X)*HillSlope))
The EC50/IC50 is therefore defined as the concentration at which an agonist or antagonist elicits a response that is half way between the Top (maximum) and Bottom (baseline) values. The EC50/IC50 values represented are the averages of at least 3 independent experiments. The determination of the relative efficacy or % control for an agonist is by comparison to the maximum response achieved by chenodeoxycholic acid that is measured individually in each dose response experiment.
For the antagonist assay, CDCA is added to each well of a 384 well plate to elicit a response. The % inhibition for each antagonist is therefore a measurement of the inhibition of the activity of CDCA. In this example, 100% inhibition would indicate that the activity of CDCA has been reduced to baseline levels, defined as the activity of the assay in the presence of DMSO only.

Turning to `CCOC(=O)C1CN(C(=O)c2ccc(F)cc2)CC(C)(C)c2c1[nH]c1c2CCCC1` (centres unmarked) [3-(4-Fluoro-benzoyl)-1,1-dimethyl-1,2,3,4,5,6,7,8,9,10-decahydro-azepino[4,5-b]indole-5-carboxylic acid ethyl ester], the EC50 – broadly, the concentration giving half of the maximal effect – was ≤ 100 nM.
In the case of `CCOC(=O)C1=CN(C(=O)c2ccc(F)c(F)c2)CC(C)(C)c2cc(C(=O)OCC)[nH]c21` [6-(3,4-Difluoro-benzoyl)-4,4-dimethyl-1,4,5,6-tetrahydro-pyrrolo[2,3-d]azepine-2,8-dicarboxylic acid diethyl ester], the concentration for a half-maximal effect (EC50) was ≤ 100 nM.
Regarding `CCOC(=O)c1cc2c(n1C)C(C(=O)OC(C)C)=CN(C(=O)c1ccc(F)c(F)c1)CC2(C)C` [6-(3,4-Difluoro-benzoyl)-1,4,4-trimethyl-1,4,5,6-tetrahydro-pyrrolo[2,3-d]azepine-2,8-dicarboxylic acid 2-ethyl ester 8-isopropyl ester], the half-maximal effective concentration (EC50) was ≤ 100 nM.
Consider `CCOC(=O)c1cc2c([nH]1)C(C(=O)OC(C)C)=CN(C(=O)c1ccc(F)c(F)c1)CC2(C)C` [6-(3,4-Difluoro-benzoyl)-4,4-dimethyl-1,4,5,6-tetrahydro-pyrrolo[2,3-d]azepine-2,8-dicarboxylic acid 2-ethyl ester 8-isopropyl ester], for which the EC50 was ≤ 100 nM.
As for `CCOC(=O)C1=CN(C(=O)c2ccc(F)cc2)CCc2c1[nH]c1c2CCCC1` [3-(4-Fluoro-benzoyl)-1,2,3,6,7,8,9,10-octahydro-azepino[4,5-b]indole-5-carboxylic acid ethyl ester], the EC50 is ≤ 1000 nM. Besides, the efficacy entry (relative to maximum response of chenodeoxycholic acid (CDCA)) is “greater than 100%”.
On to `CCOC(=O)C1=CN(C(=O)c2ccc(F)c(F)c2)CC(C)(C)c2ccsc21` [6-(3,4-Difluoro-benzoyl)-4,4-dimethyl-5,6-dihydro-4H-thieno[2,3-d]azepine-8-carboxylic acid ethyl ester], for which the 50% effective concentration (EC50) was ≤ 100 nM.
On to `CCOC(=O)C1=CN(C(=O)c2ccc(F)cc2)CC(C)(C)c2c1[nH]c1c2CCCC1` [3-(4-Fluoro-benzoyl)-1,1-dimethyl-1,2,3,6,7,8,9,10-octahydro-azepino[4,5-b]indole-5-carboxylic acid ethyl ester], for which the EC50 was ≤ 100 nM.
